Patent US20030114445A1, “N3-substituted 6-anilinopyrimidines and methods to treat-Gram-positive bacterial and mycoplasmal infections” (priority 2001, published 2003)
≈ marks a conversion by molar mass, not a printed value. Like-named read-outs stand apart in the source and are kept apart here.

What was measured:
B. subtilis = experiment: Inhibition of bacterial growth on agar plates (MIC); format: cell-based; conditions: Bacillus subtilis, 37° C., 24 hours
Procedure: (§1) Each compound is assayed against a panel of Bacillus, Enterococcus and Staphylococcus, and a Gram-negative bacterium Escherichia coli as negative control, grown in appropriate plate media solidified with 1.3% agar-agar. Stock solutions of the compounds in dimethylsulfoxide or water, depending on solubility, are added to sterile medium at a temperature of 60° C. […] One tenth mL of diluted bacteria containing 500-1000 colony-forming units (CFU) are plated and spread, and the plates incubated at 37° C. for 24 hours. MIC (minimum inhibitory concentration) is equivalent to the lowest concentration at which growth, i.e. colony formation, is not observed.

E. fecium = experiment: as above; format: cell-based; conditions: 37° C., 24 hours
Procedure: as §1

S.aureus (Smith) = experiment: as above; format: cell-based; conditions: Staphylococcus aureus, 37° C., 24 hours
Procedure: as §1

E. fecalis = experiment: as above; format: cell-based; conditions: 37° C., 24 hours
Procedure: as §1

B.subtilis pol IIIC = B.subtilis pol IIIC (Bacillus subtilis, UniProt P13267); experiment: biochemical
Procedure: DNA pol activity was assayed as described in Barnes et al., Nuc. Acids Res., 6:1203-19 (1979), using activated “nicked” calf-thymus DNA as template primer, 10 pM [^3H-methyl]-dTTP as the labelled dNTP substrate, and dATP, dCTP, and dGTP at 25 μM each.
Inhibitory activity of the compounds is determined by measuring the ability of the agent to inhibit enzyme-catalyzed incorporation of [^3H]-dTMP into nicked calf thymus DNA in the absence of the competitor dGTP or dATP (“truncated assay”) (see G. E. Wright and N. C. Brown, Inhibition of Bacillus subtilis DNA Polymerase III by Arylhydrazinopyrimidines: Novel Properties of 2-Thiouracil Derivatives, Biochim. Biophys. Acta 432:37-48 (1976)). Purified pol IIIC is added to a buffered solution containing Mg^2+, DTT, glycerol, nicked calf thymus DNA, saturating concentrations of dATP, dCTP, dTTP and [^3H]-dTTP. Reaction mixtures are incubated at 30° C. for 10 minutes, quenched and filtered, and radioactivity in the acid-insoluble material measured by scintillation counting. Experiments are done in triplicate. Inhibitors are assayed by addition of several dilutions of a stock solution of inhibitor (DMSO or water, depending on solubility) before enzyme addition. […] The truncated assay, i.e. exclusion of the competitive substrate dGTP or dATP, depending upon whether the compound is a uracil derivative or an isocytosine derivative, respectively, allows for the direct determination of apparent inhibitor constants (K,) in this assay system.

S. aureus (Smith strain) = experiment: Efficacy, ip dosing of mice infected with S. aureus; format: in vivo; conditions: suspensions in saline, 5 animals, FIG. 2
From the text: Compounds 12, 19, 26, and 29 were given by the intraperitoneal (ip) route as suspensions in saline to mice previously infected with S. aureus (Smith strain). Vancomycin was used as a positive drug control and saline was used as a negative vehicle control.

[1] = truncated assay, apparent inhibitor constant, read-out: K1 B.subtilis pol IIIC

Sequence of B.subtilis pol IIIC (P13267 whole entry): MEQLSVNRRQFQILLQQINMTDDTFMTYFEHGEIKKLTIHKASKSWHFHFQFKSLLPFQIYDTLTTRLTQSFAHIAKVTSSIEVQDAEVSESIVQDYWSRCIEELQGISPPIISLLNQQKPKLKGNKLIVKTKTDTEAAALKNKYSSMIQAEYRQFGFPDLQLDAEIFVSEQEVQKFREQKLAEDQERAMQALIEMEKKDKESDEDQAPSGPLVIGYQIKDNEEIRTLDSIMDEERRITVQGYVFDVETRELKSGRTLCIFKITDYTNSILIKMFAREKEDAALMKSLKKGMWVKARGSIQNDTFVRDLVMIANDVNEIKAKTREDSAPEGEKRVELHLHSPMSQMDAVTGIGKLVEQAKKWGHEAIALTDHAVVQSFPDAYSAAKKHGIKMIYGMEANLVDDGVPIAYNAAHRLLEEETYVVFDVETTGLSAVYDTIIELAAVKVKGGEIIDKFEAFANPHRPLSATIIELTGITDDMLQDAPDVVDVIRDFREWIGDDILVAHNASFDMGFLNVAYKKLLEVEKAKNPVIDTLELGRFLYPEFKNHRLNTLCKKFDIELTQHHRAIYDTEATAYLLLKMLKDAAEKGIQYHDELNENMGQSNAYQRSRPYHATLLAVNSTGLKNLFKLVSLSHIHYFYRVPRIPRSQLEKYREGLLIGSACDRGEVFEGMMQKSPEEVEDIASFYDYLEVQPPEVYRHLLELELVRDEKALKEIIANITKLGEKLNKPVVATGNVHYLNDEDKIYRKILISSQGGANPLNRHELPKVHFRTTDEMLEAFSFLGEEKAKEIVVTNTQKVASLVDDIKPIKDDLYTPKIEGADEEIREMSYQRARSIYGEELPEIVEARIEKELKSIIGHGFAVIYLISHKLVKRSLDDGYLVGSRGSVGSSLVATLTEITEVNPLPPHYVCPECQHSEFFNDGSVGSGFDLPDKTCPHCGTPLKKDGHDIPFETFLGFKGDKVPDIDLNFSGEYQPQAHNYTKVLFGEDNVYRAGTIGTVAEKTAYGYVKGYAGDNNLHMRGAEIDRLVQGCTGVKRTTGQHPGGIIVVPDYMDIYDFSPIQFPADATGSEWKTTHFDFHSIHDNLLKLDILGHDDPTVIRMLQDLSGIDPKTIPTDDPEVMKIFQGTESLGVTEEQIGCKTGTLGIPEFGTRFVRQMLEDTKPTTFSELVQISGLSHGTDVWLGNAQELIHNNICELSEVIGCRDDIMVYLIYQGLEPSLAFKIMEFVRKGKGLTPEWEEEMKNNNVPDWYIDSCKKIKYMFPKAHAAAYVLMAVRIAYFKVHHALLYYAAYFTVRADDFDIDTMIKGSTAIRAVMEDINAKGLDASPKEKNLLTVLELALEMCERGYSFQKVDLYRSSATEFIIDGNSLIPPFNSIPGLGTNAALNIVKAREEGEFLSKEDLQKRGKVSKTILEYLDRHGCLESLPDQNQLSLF

| Compound | MIC (B. subtilis) [µg/mL] | MIC (E. fecium) [µg/mL] | MIC (S.aureus (Smith)) [µg/mL] | MIC (E. fecalis) [µg/mL] | Ki (B.subtilis pol IIIC) [nM] | animals protected (S. aureus (Smith strain)) | Ki (B.subtilis pol IIIC; [1]) [nM] |
| --- | --- | --- | --- | --- | --- | --- | --- |
| CCc1cc(Nc2cc(=O)n(CCOCCO)c(=O)[nH]2)ccc1C [Compound 29, 3-[2-(2-Hydroxyethoxy)ethyl]-6-(3-ethyl-4-methylanilino)uracil] | < 1.25 | 5 (≈ 15 µM) | 5 (≈ 15 µM) | 5 (≈ 15 µM) | 125 | 4 of the 5 | – |
| CCc1cc(Nc2cc(=O)n(CCCCCO)c(=O)[nH]2)ccc1C [Compound 26, 3-(5-Hydroxypentyl)-6-(3-ethyl-4-methylanilino)uracil] | – | – | – | – | – | 1 of the 5 | – |
| CCc1cc(Nc2cc(=O)n(CCCCN3CCN(C(=O)c4ccco4)CC3)c(=O)[nH]2)ccc1C [Compound 40, 3-{4-[4-(2-Furoyl)piperazino]butyl}-6-(3-ethyl-4-methylanilino)uracil] | 5 (≈ 10.4 µM) | 10 (≈ 20.9 µM) | 5 (≈ 10.4 µM) | 5 (≈ 10.4 µM) | – | – | 43 |
| CCc1cc(Nc2cc(=O)n(CCCC(C)=O)c(=O)[nH]2)ccc1C [Compound 8, 3-(4-Oxopentyl)-6-(3-ethyl-4-methylanilino)uracil] | < 1.25 | 5 (≈ 15.2 µM) | 5 (≈ 15.2 µM) | 5 (≈ 15.2 µM) | 61 | – | – |
| CCc1cc(Nc2cc(=O)n(CCCCN3CCSCC3)c(=O)[nH]2)ccc1C [Compound 36, 3-[(N-Thiomorpholino)butyl]-6-(3-ethyl-4-methylanilino)uracil] | 5 (≈ 12.4 µM) | 5 (≈ 12.4 µM) | 10 (≈ 24.8 µM) | 5 (≈ 12.4 µM) | – | – | 68 |
| CCc1cc(Nc2cc(=O)n(CCCCCN3CCc4c([nH]c5ccc(OC)cc45)C3)c(=O)[nH]2)ccc1C [Compound 69] | 5 (≈ 9.7 µM) | 20 (≈ 38.8 µM) | 10 (≈ 19.4 µM) | 20 (≈ 38.8 µM) | 109 | – | – |
| CCc1cc(Nc2cc(=O)n(CCCCCNC(=O)c3cc4ccccc4s3)c(=O)[nH]2)ccc1C [Compound 77, 3-[5-(2-benzo[b]thiophenecarboxamido)pentyl]-6-(3-ethyl-4-methylanilino)uracil] | 80 (≈ 163 µM) | 80 (≈ 163 µM) | 80 (≈ 163 µM) | 80 (≈ 163 µM) | 480 | – | – |
| CCOC(=O)C1CN(CCCCCn2c(=O)cc(Nc3ccc(C)c(CC)c3)[nH]c2=O)CCC1=O (stereo not drawn) [Compound 78, 3-{5-(3-ethoxycarbonyl-4-oxopiperidinyl)pentyl}-6-(3-ethyl-4-methylanilino)uracil] | 80 (≈ 165 µM) | 80 (≈ 165 µM) | 80 (≈ 165 µM) | 80 (≈ 165 µM) | 250 | – | – |
| CCc1cc(Nc2cc(=O)n(CCCCN3CCN(Cc4ccccc4)CC3)c(=O)[nH]2)ccc1C [Compound 41, 3-[4-(4-Benzylpiperazino)butyl]-6-(3-ethyl-4-methylanilino)uracil] | 5 (≈ 10.5 µM) | 5 (≈ 10.5 µM) | > 20 | 10 (≈ 21 µM) | 34 | – | – |
| CCc1cc(Nc2cc(=O)n(CCCCCNc3ncc(C#N)c(N)n3)c(=O)[nH]2)ccc1C [Compound 66, 3-{5-[(4-amino-5-cyano-2-pyrimidinyl)amino]pentyl}-6-(3-ethyl-4-methylanilino)uracil] | 80 (≈ 178 µM) | 80 (≈ 178 µM) | 80 (≈ 178 µM) | 80 (≈ 178 µM) | 39500 | – | – |
| CCc1cc(Nc2cc(=O)n(CCN(CC)CC)c(=O)[nH]2)ccc1C [Compound 14, 3-[2-(N,N-diethylamino)ethyl]-6-(3-ethyl-4-methylanilino)uracil] | 10 (≈ 29 µM) | 20 (≈ 58.1 µM) | 20 (≈ 58.1 µM) | 20 (≈ 58.1 µM) | 530 | – | – |
| CCc1cc(Nc2cc(=O)n(CCCCCN3CC=C(c4cccc5ccsc45)CC3)c(=O)[nH]2)ccc1C [Compound 73, 3-{5-[1-(4-(benzo[b]thiophen-7-yl)-1,2,3,6-tetrahydropyridinyl)]pentyl}-6-(3-ethyl-4-methylanilino)uracil] | 10 (≈ 18.9 µM) | > 80 | 10 (≈ 18.9 µM) | > 80 | 80 | – | – |
| CCc1cc(Nc2cc(=O)n(CCCCCN3CC=C(c4ccc(Cl)cc4)CC3)c(=O)[nH]2)ccc1C [Compound 76, 3-{5-[1-(4-(4-chlorophenyl)-1,2,3,6-tetrahydropyridinyl)]pentyl}-6-(3-ethyl-4-methylanilino)uracil] | 5 (≈ 9.86 µM) | 80 (≈ 158 µM) | 5 (≈ 9.86 µM) | 80 (≈ 158 µM) | 87 | – | – |
| CCc1cc(Nc2cc(=O)n(CCCCCNC(=O)c3cccs3)c(=O)[nH]2)ccc1C [Compound 70, 3-[5-(2-thiophenecarboxamido)pentyl]-6-(3-ethyl-4-methylanilino)uracil] | 1.25 (≈ 2.84 µM) | 5 (≈ 11.3 µM) | 10 (≈ 22.7 µM) | 5 (≈ 11.3 µM) | 65 | – | – |
| CCc1cc(Nc2cc(=O)n(CCCCN3CCN(c4ncccn4)CC3)c(=O)[nH]2)ccc1C [Compound 45, 3-{4-[4-(2-pyrimidinyl)piperazinyl]butyl}-6-(3-ethyl-4-methyylanilino)uracil] | 2.5 (≈ 5.39 µM) | 5 (≈ 10.8 µM) | 10 (≈ 21.6 µM) | 5 (≈ 10.8 µM) | – | – | 43 |
| CCc1cc(Nc2cc(=O)n(CCCCOC(C)=O)c(=O)[nH]2)ccc1C [Compound 22, 3-(4-Acetoxybutyl)-6-(3-ethyl-4-methylanilino)uracil] | 1.25 (≈ 3.48 µM) | 5 (≈ 13.9 µM) | 2.5 (≈ 6.96 µM) | 5 (≈ 13.9 µM) | 58 | – | – |
| CCc1cc(Nc2cc(=O)n(CCCCNC(=O)C3CC3)c(=O)[nH]2)ccc1C [Compound 49, 3-{4-[(cyclopropylcarbonyl)amino]butyl}-6-(3-ethyl-4-methylanilino)uracil] | 5 (≈ 13 µM) | 2.5 (≈ 6.5 µM) | 5 (≈ 13 µM) | 5 (≈ 13 µM) | 82 | – | – |
| CCc1cc(Nc2cc(=O)n(CCCCCNC[C@@H]3CCN(C(=O)OC(C)(C)C)C3)c(=O)[nH]2)ccc1C [Compound 79, 3(S)-{5-[(N-tert-butoxycarbonylpyrrolidin-3-yl)methylamino]pentyl}-6-(3-ethyl-4-methylanilino)uracil] | 20 (≈ 38.9 µM) | 40 (≈ 77.9 µM) | 20 (≈ 38.9 µM) | 40 (≈ 77.9 µM) | 120 | – | – |
| CCc1cc(Nc2cc(=O)n(C/C=C/C(=O)OC)c(=O)[nH]2)ccc1C [Compound 7, 3-[3-(Methoxycarbonyl)-2-propenyl]-6-(3-ethyl-4-methylanilino)uracil] | 2.5 (≈ 7.28 µM) | 5 (≈ 14.6 µM) | 10 (≈ 29.1 µM) | 20 (≈ 58.2 µM) | 320 | – | – |
| CCc1cc(Nc2cc(=O)n(CCCCN3CCN(c4ncc(C(=O)O)c(C(F)(F)F)n4)CC3)c(=O)[nH]2)ccc1C [Compound 65, 3-{4-[4-(4-trifluoromethyl-5-carboxy-2-pyrimidinyl)-1-piperazinyl]butyl}-6-(3-ethyl-4-methylanilino)uracil] | 80 (≈ 139 µM) | 40 (≈ 69.5 µM) | 80 (≈ 139 µM) | 80 (≈ 139 µM) | 113 | – | – |
| CCc1cc(Nc2cc(=O)n(CCCCN3CC=C(c4ccc5c(c4)OCO5)CC3)c(=O)[nH]2)ccc1C [Compound 80, 3-{4-[4-(3,4-dioxomethylenephenyl-1,2,3,6-tetrahydropyridinyl)]butyl}-6-(3-ethyl-4-methylanilino)uracil] | 2.5 (≈ 4.97 µM) | 5 (≈ 9.95 µM) | 10 (≈ 19.9 µM) | 5 (≈ 9.95 µM) | 24 | – | – |
| CCc1cc(Nc2cc(=O)n(CCCCCCO)c(=O)[nH]2)ccc1C [Compound 27, 3-(6-Hydroxyhexyl)-6-(3-ethyl-4-methylanilino)uracil] | < 1.25 | 5 (≈ 14.5 µM) | 2.5 (≈ 7.24 µM) | 2.5 (≈ 7.24 µM) | 49 | – | – |
| CCc1cc(Nc2cc(=O)n(CCCCN3CCN(c4nc(C)cc(C(=O)OC)n4)CC3)c(=O)[nH]2)ccc1C [Compound 61, 3-{4-[4-(6-methyl-4-methoxycarbonyl-2-pyrimidinyl)-1-piperazinyl]butyl}-6-(3-ethyl-4-methylanilino)uracil] | 10 (≈ 18.7 µM) | 20 (≈ 37.3 µM) | 40 (≈ 74.7 µM) | 20 (≈ 37.3 µM) | 66 | – | – |
| CCc1cc(Nc2cc(=O)n(CCCCN3CCN(c4ncc(C(=O)OC)c(C(F)(F)F)n4)CC3)c(=O)[nH]2)ccc1C [Compound 62, 3-{4-[4-(4-trifluoromethyl-5-methoxycarbonyl-2-pyrimidinyl)-1-piperazinyl]butyl}-6-(3-ethyl-4-methylanilino)uracil] | 80 (≈ 136 µM) | 80 (≈ 136 µM) | 80 (≈ 136 µM) | 80 (≈ 136 µM) | 550 | – | – |
